Biological target: human adenosine A2a receptor (Homo sapiens (Human), UniProt P29274)
Experiment: A2a receptor binding affinity, [3H]-NECA radioligand binding test
Conditions: [3H]-NECA 37 nM; membrane from HEK-293 cells transfected with human adenosine A2a receptor
Procedure: The binding affinity of the compounds according to Examples of the present invention to the human adenosine A2a receptor was evaluated by entrusting SB drug discovery in the UK.
A radioligand binding test was conducted by using [3H]-NECA (5′-N-[adenine-2,8-3H]-ethylcarboxamidoadenosine) and an adenosine A2a membrane. As the adenosine A2a membrane, a cell membrane prepared from HEK-293 cells transfected with human adenosine A2a receptor was used. The membrane used for the test was prepared by incubating with a radioligand until equilibrium was reached. In order to separate the radioligand-bound membrane, the unbound radioligand was separated by using Packard filtermate Harverster and glass filter plates.
10 μL of test compound dissolved in binding buffer (50 mM Tris, 10 mM MgCl2, 1 mM EDTA pH 7.4) and 20 μL of [3H]-NECA (final concentration of 37 nM) or reference inhibitor was mixed with 20 μL of A2a membrane in an unbound 96-well plate and incubated at room temperature for one hour. Prior to filtration, a 96-well harvest filter plate was coated with 0.33% polyethylenimine for 30 minutes and then washed with assay buffer. The binding reaction was transferred to the filter plate and washed three times with wash buffer. The dish was then dried, scintillant was added, and radioactivity was counted in a scintillation counter (Topcount NXT, Packard).
The binding affinity IC50 (μM) for the human adenosine A2a receptor obtained according to the above experimental method is shown in the table below.

Chain of human adenosine A2a receptor (P29274 whole entry): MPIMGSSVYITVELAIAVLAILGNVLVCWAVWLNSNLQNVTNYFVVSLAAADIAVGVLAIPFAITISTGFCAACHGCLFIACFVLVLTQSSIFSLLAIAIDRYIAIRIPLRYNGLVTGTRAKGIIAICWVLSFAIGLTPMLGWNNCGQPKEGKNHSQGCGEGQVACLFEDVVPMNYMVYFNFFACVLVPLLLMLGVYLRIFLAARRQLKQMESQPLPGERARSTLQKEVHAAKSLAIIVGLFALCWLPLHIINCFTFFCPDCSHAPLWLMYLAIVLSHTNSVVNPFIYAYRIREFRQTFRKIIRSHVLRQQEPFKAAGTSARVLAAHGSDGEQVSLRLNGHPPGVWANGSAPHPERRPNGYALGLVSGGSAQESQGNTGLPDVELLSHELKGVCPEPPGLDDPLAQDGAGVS

| SMILES | IC50 [nM] |
| --- | --- |
| Cn1cc(N2CCN(C(=O)[C@@H]3CCCN3c3nc(N)n4nc(-c5ccco5)nc4n3)CC2)cn1 [Example 321, (S)-(1-(7-amino-2-(furan-2-yl)-[1,2,4]triazolo[1,5-a][1,3,5]triazin-5-yl)pyrrolidin-2-yl)(4-(1-methyl-1H-pyrazol-4-yl)piperazin-1-yl)methanone] | 2 |
| C[C@@H]1CN(CC(F)F)CCN1C(=O)[C@@H]1CCCN1c1nc(N)n2nc(-c3ccco3)nc2n1 [Example 371, ((S)-1-(7-amino-2-(furan-2-yl)-[1,2,4]triazolo[1,5-a][1,3,5]triazin-5-yl)pyrrolidin-2-yl)((R)-4-(2,2-difluoroethyl)-2-methylpiperazin-1-yl)methanone] | 11 |
| C[C@H](Nc1nc(N)n2nc(-c3nccs3)nc2n1)C(=O)N1CCN(c2ccc(F)cc2F)CC1 [Example 194, (S)-2-((7-amino-2-(thiazol-2-yl)-[1,2,4]triazolo[1,5-a][1,3,5]triazin-5-yl)amino)-1-(4-(2,4-difluorophenyl)piperazin-1-yl)propan-1-one] | 12 |
| CCCCN1CCN(C(=O)[C@@H]2CCN2c2nc(N)n3nc(-c4ccc(C)o4)nc3n2)CC1 [Example 222, (S)-(1-(7-amino-2-(5-methylfuran-2-yl)-[1,2,4]triazolo[1,5-a][1,3,5]triazin-5-yl)azetidin-2-yl)(4-butylpiperazin-1-yl)methanone] | 8 |
| Nc1nc(N2CCC[C@H]2C(=O)N2CCn3nc(C(F)(F)F)nc3C2)nc2nc(-c3ccco3)nn12 [Example 309] | 21 |
| CC(c1ccccc1)N1CCN(C(=O)[C@@H]2CCCN2c2nc(N)n3nc(-c4ccco4)nc3n2)CC1 (stereo partly shown) [Example 66] | 7 |
| Cc1ccc(-c2nc3nc(N4CC[C@H]4C(=O)N4CCN(CC(F)(F)F)CC4)nc(N)n3n2)o1 [Example 220, (S)-(1-(7-amino-2-(5-methylfuran-2-yl)-[1,2,4]triazolo[1,5-a][1,3,5]triazin-5-yl)azetidin-2-yl)(4-(2,2,2-trifluoroethyl)piperazin-1-yl)methanone] | 15 |
| Cc1ccc(-c2nc3nc(N4CC[C@H]4C(=O)N4CCN(CC(F)(F)C(F)(F)F)CC4)nc(N)n3n2)o1 [Example 313, (S)-(1-(7-amino-2-(5-methylfuran-2-yl)-[1,2,4]triazolo[1,5-a][1,3,5]triazin-5-yl)azetidin-2-yl)(4-(2,2,3,3,3-pentafluoropropyl)piperazin-1-yl)methanone] | 5 |
| Nc1nc(N2CCC[C@H]2C(=O)N2CCC(C3CCN(CC(F)(F)F)CC3)CC2)nc2nc(-c3ccco3)nn12 [Example 206, (S)-(1-(7-amino-2-(furan-2-yl)-[1,2,4]triazolo[1,5-a][1,3,5]triazin-5-yl)pyrrolidin-2-yl)(1′-(2,2,2-trifluoroethyl)-[4,4′-bipiperidin]-1-yl)methanone] | 1 |
| Nc1nc(N2CCC[C@H]2C(=O)N2CCN(c3ccc(F)cc3F)CC2)nc2nc(-c3ccco3)nn12 [Example 12, (S)-(1-(7-amino-2-(furan-2-yl)-[1,2,4]triazolo[1,5-a][1,3,5]triazin-5-yl)pyrrolidin-2-yl)(4-(2,4-difluorophenyl)piperazin-1-yl)methanone] | 1.43 |
| CCC(F)(F)CN1CCN(C(=O)[C@@H]2CCCN2c2nc(N)n3nc(-c4ccco4)nc3n2)CC1 [Example 225, (S)-(1-(7-amino-2-(furan-2-yl)-[1,2,4]triazolo[1,5-a][1,3,5]triazin-5-yl)pyrrolidin-2-yl)(4-(2,2-difluorobutyl)piperazin-1-yl)methanone] | 2 |
| Nc1nc(N2CCC[C@H]2C(=O)N2CCN(C3CC3)CC2)nc2nc(-c3ccco3)nn12 [Example 139, (S)-(1-(7-amino-2-(furan-2-yl)-[1,2,4]triazolo[1,5-a][1,3,5]triazin-5-yl)pyrrolidin-2-yl)(4-cyclopropylpiperazin-1-yl)methanone] | 28 |
| C[C@H](Nc1nc(N)n2nc(-c3ccco3)nc2n1)C(=O)N1CCN(CC(F)(F)C(F)(F)C(F)(F)F)CC1 [Example 320, (S)-2-((7-amino-2-(furan-2-yl)-[1,2,4]triazolo[1,5-a][1,3,5]triazin-5-yl)amino)-1-(4-(2,2,3,3,4,4,4-heptafluorobutyl)piperazin-1-yl)propan-1-one] | 2 |
| Nc1nc(N2CCC[C@H]2C(=O)N2CCC(C3CCN(C(=O)Nc4ccccc4)CC3)CC2)nc2nc(-c3ccco3)nn12 [Example 184, 1′-((7-amino-2-(furan-2-yl)-[1,2,4]triazolo[1,5-a][1,3,5]triazin-5-yl)-L-prolyl)-N-phenyl-[4,4′-bipiperidine]-1-carboxamide] | 12 |
| C[C@H](Nc1nc(N)n2nc(-c3ccco3)nc2n1)C(=O)N1C[C@@H]2C[C@H]1CN2Cc1ccc(F)cc1F [Example 32, (S)-2-((7-amino-2-(furan-2-yl)-[1,2,4]triazolo[1,5-a][1,3,5]triazin-5-yl)amino)-1-((1S, 4S)-5-(2,4-difluorobenzyl)-2,5-diazabicyclo[2.2.1]heptan-2-yl)propan-1-one] | 0.5 |
| Nc1nc(N2CC3(CC3)C[C@H]2C(=O)N2CCN(CC(F)(F)F)CC2)nc2nc(-c3ccco3)nn12 [Example 385, (S)-(5-(7-amino-2-(furan-2-yl)-[1,2,4]triazolo[1,5-a][1,3,5]triazin-5-yl)-5-azaspiro[2.4]heptan-6-yl)(4-(2,2,2-trifluoroethyl)piperazin-1-yl)methanone] | 0.8 |

Other lines, results leading:

| IC50 [nM] | SMILES |
| --- | --- |
| 26 | C[C@H](Nc1nc(N)n2nc(-c3ccco3)nc2n1)C(=O)N1CCN(CC(F)F)CC1 [Example 316, (S)-2-((7-amino-2-(furan-2-yl)-[1,2,4]triazolo[1,5-a][1,3,5]triazin-5-yl)amino)-1-(4-(2,2-difluoroethyl)piperazin-1-yl)propan-1-one] |
| 10 | CCCCN1CCN(C(=O)[C@@H](Nc2nc(N)n3nc(-c4ccco4)nc3n2)C2CCCC2)CC1 [Example 178, (S)-2-((7-amino-2-(furan-2-yl)-[1,2,4]triazolo[1,5-a][1,3,5]triazin-5-yl)amino)-1-(4-butylpiperazin-1-yl)-2-cyclopentylethan-1-one] |
| 14 | CC(C)[C@H](Nc1nc(N)n2nc(-c3ccco3)nc2n1)C(=O)N1CCN(C(=O)CC(C)(C)O)CC1 [Example 369, 1-(4-((7-amino-2-(furan-2-yl)-[1,2,4]triazolo[1,5-a][1,3,5]triazin-5-yl)-L-valyl)piperazin-1-yl)-3-hydroxy-3-methylbutan-1-one] |
| 8 | CC[C@H](Nc1nc(N)n2nc(-c3ccco3)nc2n1)C(=O)N1CCN(c2ccc(F)cc2F)CC1 [Example 162, (S)-2-((7-amino-2-(furan-2-yl)-[1,2,4]triazolo[1,5-a][1,3,5]triazin-5-yl)amino)-1-(4-(2,4-difluorophenyl)piperazin-1-yl)butan-1-one] |
| 8 | CC(C)C[C@H](Nc1nc(N)n2nc(-c3ccco3)nc2n1)C(=O)N1CCN(CC(F)(F)F)CC1 [Example 215, (S)-2-((7-amino-2-(furan-2-yl)-[1,2,4]triazolo[1,5-a][1,3,5]triazin-5-yl)amino)-4-methyl-1-(4-(2,2,2-trifluoroethyl)piperazin-1-yl)pentan-1-one] |
| 2 | CC(C)(O)CC(=O)N1CCC(C2CCN(C(=O)[C@@H]3CCCN3c3nc(N)n4nc(-c5ccco5)nc4n3)CC2)CC1 [Example 290, 1-(1′-((7-amino-2-(furan-2-yl)-[1,2,4]triazolo[1,5-a][1,3,5]triazin-5-yl)-L-prolyl)-[4,4′-bipiperidin]-1-yl)-3-hydroxy-3-methylbutan-1-one] |
| 10 | CC(C)OCCN1CCN(C(=O)[C@@H]2CCCN2c2nc(N)n3nc(-c4ccco4)nc3n2)CC1 [Example 140, (S)-(1-(7-amino-2-(furan-2-yl)-[1,2,4]triazolo[1,5-a][1,3,5]triazin-5-yl)pyrrolidin-2-yl)(4-(2-isopropoxyethyl)piperazin-1-yl)methanone] |
| 15 | Nc1nc(N[C@@H](Cc2ccccc2)C(=O)N2CCC(N3CCOCC3)CC2)nc2nc(-c3ccco3)nn12 [Example 19, (S)-2-((7-amino-2-(furan-2-yl)-[1,2,4]triazolo[1,5-a][1,3,5]triazin-5-yl)amino)-1-(4-morpholinopiperidin-1-yl)-3-phenylpropan-1-one] |
| 3 | Nc1nc(N[C@H](C(=O)N2CCN(c3ccc(F)cc3F)CC2)C2CCOCC2)nc2nc(-c3ccco3)nn12 [Example 171, (S)-2-((7-amino-2-(furan-2-yl)-[1,2,4]triazolo[1,5-a][1,3,5]triazin-5-yl)amino)-1-(4-(2,4-difluorophenyl)piperazin-1-yl)-2-(tetrahydro-2H-pyran-4-yl)ethan-1-one] |
| 11 | Cc1ncc(C(=O)N2CCN(C(=O)[C@@H]3CCCN3c3nc(N)n4nc(-c5ccco5)nc4n3)CC2)s1 [Example 104] |
| 14 | CC[C@H](Nc1nc(N)n2nc(-c3ccco3)nc2n1)C(=O)N1CCN(CC(C)(C)F)CC1 [Example 338, (S)-2-((7-amino-2-(furan-2-yl)-[1,2,4]triazolo[1,5-a][1,3,5]triazin-5-yl)amino)-1-(4-(2-fluoro-2-methylpropyl)piperazin-1-yl)butan-1-one] |
| 13 | CCOC[C@H](Nc1nc(N)n2nc(-c3ccco3)nc2n1)C(=O)N1CCN(CC(F)(F)F)CC1 [Example 308, (S)-2-((7-amino-2-(furan-2-yl)-[1,2,4]triazolo[1,5-a][1,3,5]triazin-5-yl)amino)-3-ethoxy-1-(4-(2,2,2-trifluoroethyl)piperazin-1-yl)propan-1-one] |

— US20240217978A1 (CHONG KUN DANG PHARMACEUTICAL CORP., priority 2021, published 2024)
